From patent US20140256663A1, “Amphotericin Analogous Compounds and Pharmaceutical Compositions Containing Them” (CENTRO DE INVESTIGACION Y DE ESTUDIOS AVANZADOS DEL …, priority 2010, published 2014) come the findings set out here.

In data set [1] the test system is human renal cells 293Q (ATCC CLR-1573). Briefly: MTT cytotoxicity on human renal cells 293Q. The following applies: human renal cells 293Q, 24 h. The procedure:
For cytotoxicity studies human kidney cells (ATCC No. CRL-1573) were used. The cells were cultured with Minimum Essential Medium (MEM) (GIBCO BRL), supplemented with 10% fetal bovine serum (FBS) (GIBCO BRL), 2 mM 1-glutamine (GIBCO BRL), 1.5 gL Na2HCO3 (Sigma Chemical Co), 0.1 mM nonessential amino acids (Sigma Chemical Co), and 1 mM sodium pyruvate (In vitro, S.A.). The technique of bromide of 3(4,5-dimethylthiazol-2-yl)-2,5-diphenyl tetrazolium (MTT) (Sigma Chemical Co) was applied; a technique which is based on the conversion of dye to an insoluble precipitate called formazan. This test is used as an indicator of mitochondrial function in living cells that measures the metabolic capacity in cells and serves as an indicator of cytotoxicity. […] (Mosman […], Immunol Methods, 65: 55-63). The cytoxicity test consisted of planting 10,000 cells per well in 96-well plates (Corning Incorporated Costar) in MEM and incubate them (Nuaire us autoflow CO2 water-jacketed incubator) during 24 h at 37° C. and 5% CO2. […] After incubation, cells were treated and incubated anew for 24 h. After this time the medium was aspirated carefully and replaced with 200 μL of fresh medium, and 50 μL of MTT was added for a total volume of 250 μl. They were then incubated for 4 hours in the above conditions. After that time the medium with MTT was carefully removed and 200 μL of DMSO and 25 μL of Sorensen buffer (0.1 M glycine+0.1 M NaCl at pH 10.5) were added to each well. The plate was then mixed until the formazan crystals dissolved, and it was finally read in a plate reader (Microplate Limaning System Ultramark, Biorad) at a wavelength of 550 nm.
For the tests, we used human renal ephythelial cells (293Q) (ATCC Catalog No. CRL-1573). The cells were cultured with Minimum Essential Medium (MEM) (GIBCO BRL) supplemented with 10% fetal bovine serum (FBS) (GIBCO BRL), 2 mM L-glutamine (GIBCO BRL), 1.5 g/L Na2HCO3 (Sigma Chemical Co), 0.1 mM nonessential amino acids (Sigma Chemical Co), and 1 mM sodium pyruvate (In vitro, S.A.). For cytoxicity tests, we applied the technique of bromide 3(4,5-dimethylthiazol-2-yl)-2,5-diphenyl tetrazolium (MTT) (Sigma Chemical Co), which is based on the conversion of the dye to an insoluble precipitate called formazan. This test is used as an indicator of mitochondrial function in living cells which measures the metabolic capacity in cells and serves as an indicator of cytotoxicity. (Wang, H. Z., Chang, C. H., Lin, C. P., Tsai, M. C). Using MTT viability assay to test the cytotoxicity of antibiotics and steroid to cultured porcine corneal endothelial cells. J. Ocul. Pharmacol. Ther. 1996; 12: 35-43). For the essay 10,000 cells were seeded per well in 96-well plates (Corning Incorporated Costar) in the medium already indicated and incubated for 24 h at 37° C. and 5% CO2. […] After incubation, cells were treated and incubated again for 24 h. The medium was carefully aspirated and replaced with 200 μl fresh medium, adding 50 μl MTT solution for a total volume of 250 μl. They were then incubated for 4 hours in the above conditions. The medium was carefully removed with MTT and 200 μl DMSO and 25 μl Sorense buffer (0.1 M glycine+0.1 M NaCl at pH 10.5) was added to each well. Then the plate was mixed until the formazan crystals dissolved; it was finally read in a reader plate (Microplate Limaning System Ultramark, Biorad) at a wavelength of 550 nm.

A short description of data set [2]: Unit channel studies in chicken egg lecithin bilayers with cholesterol. The settings on record: 200 μM compound; 30 mol % cholesterol, 27° C. The procedure:
The activity is determined by the presence of the different channels formed by polyenes in the lipid bilayer (Cotero, et al., supra; Venegas, et al., supra). […] These values were determined by the technique of unit channel delineated above.
Unit channel studies were performed according to procedures described earlier (Cotero, et al., supra, Venegas, et al., supra). Required liposomal suspensions were prepared using lecithin with cholesterol or ergosterol. These suspensions were placed in an ultrasonic bath for 15 minutes to produce unilamellar vesicles. Subsequently, the suspension was placed in a 100 μl eppendorf and a lipid bilayer was formed on the tip of a micro-electrode. The unit channels of amphotericin and of the invented compounds were incorporated to this bilayer. The unit channel current of the various compounds was recorded with an electrometer, and then these records were analyzed by determining the activity of the compounds and the characteristics of the channels formed.
The activity is determined by the presence of the various channels formed by polyenes in the lipid bilayer (Cotero, et al., supra, Venegas, et al., supra). […] This conductance is the effect of all the channels present and was determined by the unit channel technique earlier described.

Data set [3] has as its system Candida albicans ATCC 752. Briefly: Antifungal activity in vitro by flow cytometry, Candida albicans ATCC 752. It is filed as cell-based. The following applies: ATCC752, 24 h at 37° C., read-out: CF50 Candida albicans ATCC 752. The procedure:
(§1) The antifungal activity of the polyene macrolide derivate of the present invention was determined by flow cytometry method earlier described (Pinto et al., J. Medical Microbiology, 2009; 58, 1454-1462; Pina-Vaz and Rodriguez, Methods Mol. Biol. 2010; 638:281-289). For the test two strains of Candida albicans (ATCC 10231 and 752) and Candida kruzei were used. A cellular suspension of 1×10^6 UFC/mL was used, which has sown in 96-well plates. […] As controls were used: untreated yeasts (control of living cells), yeasts exposed to UV radiation (arrest, inhibition of proliferation), and yeasts exposed at temperature of 100° C. (dead yeasts). Cells were collected by centrifugation at 10,000×g for 10 min, they were washed once in phosphate buffer. […] of propidium iodide 0.1 mg/mL were added to the cell suspension. It was incubated during 30 minutes at room temperature and protected from light. Finally, the samples were analyzed by flow cytometry (Becton-Dickinson Facsc Calibur, laser argon 480 nm). The intrinsic parameters and fluorescence in the FL2 channel (yellow/orange fluorescence) for FUN and channel FL3 (red fluorescence, filter 630 nm) for propidium iodide were acquired and registered on a logarithmic scale for a minimum of 7500 events per sample. For data analysis, the quadrants were adjusted in a plot of data lines of fluorescence intensity of samples. […] These quadrants were used to quantify the percentile of cells showing altered fluorescence compared to drug-free controls.
(In general: A flow cytometer gives signals particle by particle.)

Data set [4] concerns Candida albicans ATCC 10231. In words: Antifungal activity in vitro by flow cytometry, Candida albicans ATCC 10231. It is filed as cell-based. The settings on record: ATCC10231, 24 h at 37° C., read-out: CF50 Candida albicans ATCC 10231. The procedure: as §1
A further data set relates to Candida kruzei. In words: Antifungal activity in vitro by flow cytometry, Candida kruzei. It is filed as cell-based. The settings on record: 24 h at 37° C., read-out: CF50 Candida kruzei. The procedure: as §1
A further data set deals with human erythrocytes. In words: Hemolytic assay on human erythrocytes. It is filed as cell-based. The following applies: 1 hour. The method, then: The hemotoxicity of the polyene macrolide derivative of the present invention was determined by measuring the toxicity to human erythrocytes (values HE50) using a method established by Cybulska, et al. (Cybulska, B., Borowski, E. and Gary-Bobo, M. Relationship between ionophoric and hemolytic activities of perimycin A and vacidin A, two polyene macrolide antifungal antibiotics. Biochem Pharmacol. 1989; 38(11): 1755-1762). For determining the haematoxicity 2 mL blood were obtained and placed in a tube with EDTA. The number of erythrocytes was counted in a Neubauer chamber, and 1×10^7 cells/mL were placed in test tubes. The erythrocytes were resuspended in 450 μL of KCl 150 mM+Tris 3 mM buffer. The erythrocytes were treated with concentrations of 0.01, 0.1, 1, 10 y 100 μM and incubated in a water bath for 1 hour. They were then centrifuged at 1500 rpm for 15 seconds; 150 μL were taken from the supernatant and placed in 96-well plates; the optical density of each group was measured using a plate reader at a wavelength of 550 nm. We included one tube with the drug solvent (DMSO 1%) as internal control. We also included one tube only with erythrocytes and 500 μl of buffer KCl 150 mM+Tris 3 mM, which we consider as a negative control group and a tube with 500 μl of red cells and 35 mM NaCl (positive control).

With `CC(NC(=O)[C@@H]1C(O)C[C@@]2(O)C[C@@H](O)C[C@@H](O)[C@H](O)CC[C@@H](O)C[C@@H](O)CC(=O)OC(C)C(C)[C@H](O)C(C)/C=C/C=C/C=C/C=C/C=C/C=C/C=C/[C@H](OC3OC(C)C(O)C(N)C3O)CC1O2)c1ccccc1` (stereo partly drawn) [A-4, N—(S)-α-phenylethylamide of AmB], the “DT50 CitE50” value in data set [1] is 80 µM. For the same compound, in data set [2], the “Opening probability, channel type I” value was determined as 7%; the “Opening probability, channel type II” value came out at 3%; the “Opening probability, channel type III” value is on record as 1%; the “Opening probability, channel type IV” value is on record as less than 1%. In addition, in data set [2], the “Opening probability, channel type V” value was less than 1% and the “Opening probability, channel type VI” value is less than 1%. Moreover, the IC50 in data set [3] is greater than 100 µM. Further, the IC50 in data set [4] was greater than 50 µM. For the same compound, the IC50 with Candida kruzei was greater than 100 µM. For the same compound, the “HE50 (Hemolysis 50)” value in the data set with human erythrocytes is 46 µM.
As to `COC(=O)C(Cc1c[nH]c2ccccc12)NC(=O)[C@@H]1C(O)C[C@@]2(O)C[C@@H](O)C[C@@H](O)[C@H](O)CC[C@@H](O)C[C@@H](O)CC(=O)OC(C)C(C)[C@H](O)C(C)/C=C/C=C/C=C/C=C/C=C/C=C/C=C/[C@H](OC3OC(C)C(O)C(N)C3O)CC1O2` (some centres unmarked) [A-6, N-(L)-tryptophanamide of AmB], in data set [1], the “DT50 CitE50” value is 120 µM. Moreover, in data set [2], the “Opening probability, channel type I” value worked out at 23%; the “Opening probability, channel type II” value turned out to be 2%; the “Opening probability, channel type III” value was less than 1%; the “Opening probability, channel type IV” value is reported as less than 1%. Also, in data set [2], the “Opening probability, channel type V” value is given as less than 1% and the “Opening probability, channel type VI” value was “N.O”. Besides, the IC50 in data set [3] was greater than 100 µM. The IC50 in data set [4] was greater than 50 µM. In the data set on Candida kruzei, the IC50 is greater than 100 µM. Moreover, the “HE50 (Hemolysis 50)” value with human erythrocytes was found to be 58 µM.
On to `CC1OC(O[C@H]2/C=C/C=C/C=C/C=C/C=C/C=C/C=C/C(C)[C@@H](O)C(C)C(C)OC(=O)C[C@H](O)C[C@H](O)CC[C@@H](O)[C@H](O)C[C@H](O)C[C@]3(O)CC(O)[C@@H](C(=O)NC4CCCCC4)C(C2)O3)C(O)C(N)C1O` (some centres unmarked) [A-2, N-cycloheximide of AmB], for which, in data set [1], the “DT50 CitE50” value was found to be 120 µM. In addition, in data set [2], the “Opening probability, channel type I” value is reported as 5%; the “Opening probability, channel type II” value is given as less than 1%; the “Opening probability, channel type III” value was less than 1%; the “Opening probability, channel type IV” value is listed as less than 1%. In addition, in data set [2], the “Opening probability, channel type V” value is reported as less than 1% and the “Opening probability, channel type VI” value is listed as less than 1%. In addition, in data set [3], the IC50 is greater than 100 µM. The IC50 in data set [4] is greater than 50 µM. Moreover, the IC50 in the data set on Candida kruzei was greater than 100 µM. Moreover, the “HE50 (Hemolysis 50)” value in the data set on human erythrocytes was 45 µM.
`CC1OC(O[C@H]2/C=C/C=C/C=C/C=C/C=C/C=C/C=C/C(C)[C@@H](O)C(C)C(C)OC(=O)C[C@H](O)C[C@H](O)CC[C@@H](O)[C@H](O)C[C@H](O)C[C@]3(O)CC(O)[C@@H](C(=O)N[C@H](C)c4ccccc4)C(C2)O3)C(O)C(N)C1O` (stereo partly drawn) [A-5, N—(R)-α-phenylethylamide of AmB]: in data set [1], the “DT50 CitE50” value came out at 100 µM. In data set [2], the “Opening probability, channel type I” value is reported as 10%; the “Opening probability, channel type II” value stood at 2%; the “Opening probability, channel type III” value was less than 1%; the “Opening probability, channel type IV” value is given as less than 1%. Further, in data set [2], the “Opening probability, channel type V” value is listed as less than 1% and the “Opening probability, channel type VI” value is reported as less than 1%. Also, in data set [3], the IC50 is greater than 100 µM. Moreover, the IC50 in data set [4] was greater than 50 µM. Also, the IC50 with Candida kruzei was greater than 100 µM. For the same compound, the “HE50 (Hemolysis 50)” value in the data set with human erythrocytes was 42 µM.
On to `CC1/C=C/C=C/C=C/C=C/C=C/C=C/C=C/[C@H](OC2O[C@H](O)[C@@H](O)[C@H](N)[C@@H]2O)C[C@@H]2O[C@](O)(C[C@@H](O)C[C@@H](O)[C@H](O)CC[C@@H](O)C[C@@H](O)CC(=O)O[C@@H](C)[C@H](C)[C@@H]1O)C[C@H](O)[C@H]2C(=O)NCCc1c[nH]cn1` (some centres unmarked) [A-8, N-histaminamide of AmB], for which the figures for the IC50 (in data set [3]; in data set [4]; in the data set on Candida kruzei) were greater than 100 µM, greater than 50 µM and greater than 100 µM, respectively.
